Experimental data as given in ChEMBL document CHEMBL1201862, “PubChem BioAssay data set” (2004).
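All cell lines were grown in 96-well plates and treated with compound for 48 hours. Abbreviation: GI50, concentration required for 50% inhibition of growth.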 Activity calls are given as the source filed them. No stated cut-off is given here; in the data, active = GI50 up to about 1.1 µM and inactive = higher.

Columns and labels:
Experiment in all cases: DTP human tumour cell line panel, 48 h
SF-539 = system: SF-539
NCI/ADR-RES = system: NCI/ADR-RES
RPMI-8226 = system: RPMI-8226
OVCAR-4 = system: OVCAR-4
HOP-92 = system: HOP-92
COLO 205 = system: COLO 205
NCI-H522 = system: NCI-H522
NCI-H23 = system: NCI-H23
OVCAR-5 = system: OVCAR-5
UACC-62 = system: UACC-62
MOLT-4 = system: MOLT-4
SF-295 = system: SF-295
MDA-N = system: MDA-N
SNB-75 = system: SNB-75
SK-MEL-5 = system: SK-MEL-5
UO-31 = system: UO-31
HL-60 = system: HL-60
Hs-578T = system: Hs-578T
A498 = system: A498
MDA-MB-231 = system: MDA-MB-231
SW-620 = system: SW-620
T47D = system: T47D
SR = system: SR
IGROV-1 = system: IGROV-1
MDA-MB-435 = system: MDA-MB-435
TK-10 = system: TK-10
NCI-H460 = system: NCI-H460
PC-3 = system: PC-3
Malme-3M = system: Malme-3M
HT-29 = system: HT-29
HOP-62 = system: HOP-62
SK-OV-3 = system: SK-OV-3
DU-145 = system: DU-145
ACHN = system: ACHN
CCRF-CEM = system: CCRF-CEM
LOX IMVI = system: LOX IMVI
SN12C = system: SN12C
OVCAR-3 = system: OVCAR-3
OVCAR-8 = system: OVCAR-8
UACC-257 = system: UACC-257
SNB-19 = system: SNB-19
HCT-116 = system: HCT-116
MCF7 = system: MCF7
NCI-H226 = system: NCI-H226
HCC 2998 = system: HCC 2998
SK-MEL-2 = system: SK-MEL-2
EKVX = system: EKVX
SK-MEL-28 = system: SK-MEL-28
HCT-15 = system: HCT-15
BT-549 = system: BT-549
CAKI-1 = system: CAKI-1
SF-268 = system: SF-268
U-251 = system: U-251
KM12 = system: KM12
K562 = system: K562
A549 = system: A549
786-0 = system: 786-0
M14 = system: M14
RXF 393 = system: RXF 393

SMILES: CN(C)CCCNC(=O)c1cn2c(ccc3sc4ccccc4c(=O)c32)n1
- GI50 (SF-539): 16.7 µM (inactive)
- GI50 (NCI/ADR-RES): 2.95 µM (inactive)
- GI50 (RPMI-8226): 1.73 µM (inactive)
- GI50 (OVCAR-4): 13.6 µM (inactive)
- GI50 (HOP-92): 2.15 µM (inactive)
- GI50 (COLO 205): 3.77 µM (inactive)
- GI50 (NCI-H522): 12.4 µM (inactive)
- GI50 (NCI-H23): 13.4 µM (inactive)
- GI50 (OVCAR-5): 10.6 µM (inactive)
- GI50 (UACC-62): 17.9 µM (inactive)
- GI50 (MOLT-4): 0.738 µM (active)
- GI50 (SF-295): 5.36 µM (inactive)
- GI50 (MDA-N): 5.09 µM (inactive)
- GI50 (SNB-75): 14.3 µM (inactive)
- GI50 (SK-MEL-5): 1.55 µM (inactive)
- GI50 (UO-31): 10.8 µM (inactive)
- GI50 (HL-60): 3.6 µM (inactive)
- GI50 (Hs-578T): 15.7 µM (inactive)
- GI50 (A498): 14.6 µM (inactive)
- GI50 (MDA-MB-231): 1.31 µM (inactive)
- GI50 (SW-620): 1.51 µM (inactive)
- GI50 (T47D): 18.3 µM (inactive)
- GI50 (SR): 1.95 µM (inactive)
- GI50 (IGROV-1): 10.6 µM (inactive)
- GI50 (MDA-MB-435): 13.6 µM (inactive)
- GI50 (TK-10): 16.5 µM (inactive)
- GI50 (NCI-H460): 1.13 µM (inactive)
- GI50 (PC-3): 4.8 µM (inactive)
- GI50 (Malme-3M): 8.99 µM (inactive)
- GI50 (HT-29): 1.3 µM (inactive)
- GI50 (HOP-62): 12.3 µM (inactive)
- GI50 (SK-OV-3): 16.9 µM (inactive)
- GI50 (DU-145): 12.3 µM (inactive)
- GI50 (ACHN): 11.8 µM (inactive)
- GI50 (CCRF-CEM): 2.05 µM (inactive)
- GI50 (LOX IMVI): 1.41 µM (inactive)
- GI50 (SN12C): 4.56 µM (inactive)
- GI50 (OVCAR-3): 10.7 µM (inactive)
- GI50 (OVCAR-8): 4.85 µM (inactive)
- GI50 (UACC-257): 15.1 µM (inactive)
- GI50 (SNB-19): 15.1 µM (inactive)
- GI50 (HCT-116): 1.53 µM (inactive)
- GI50 (MCF7): 3.73 µM (inactive)
- GI50 (NCI-H226): 17.3 µM (inactive)
- GI50 (HCC 2998): 11.7 µM (inactive)
- GI50 (SK-MEL-2): 21.5 µM (inactive)
- GI50 (EKVX): 14.4 µM (inactive)
- GI50 (SK-MEL-28): 5.46 µM (inactive)
- GI50 (HCT-15): 2.2 µM
- GI50 (BT-549): 18.5 µM (inactive)
- GI50 (CAKI-1): 3.28 µM (inactive)
- GI50 (SF-268): 3.82 µM (inactive)
- GI50 (U-251): 1.63 µM (inactive)
- GI50 (KM12): 12 µM (inactive)
- GI50 (K562): 1.79 µM (inactive)
- GI50 (A549): 9.14 µM (inactive)
- GI50 (786-0): 3.06 µM (inactive)
- GI50 (M14): 12.9 µM (inactive)
- GI50 (RXF 393): 5.94 µM (inactive)

SMILES: C/C(=C/CO[Si](C)(C)C(C)(C)C)C(=O)N(C)c1ccccc1I
- GI50 (SF-539): 17.2 µM (inactive)
- GI50 (NCI/ADR-RES): 17.4 µM (inactive)
- GI50 (RPMI-8226): 19.4 µM (inactive)
- GI50 (OVCAR-4): 15.3 µM (inactive)
- GI50 (HOP-92): 10.5 µM (inactive)
- GI50 (COLO 205): 18.5 µM (inactive)
- GI50 (NCI-H522): 15.6 µM (inactive)
- GI50 (NCI-H23): 22 µM (inactive)
- GI50 (OVCAR-5): 14.2 µM (inactive)
- GI50 (UACC-62): 14.8 µM (inactive)
- GI50 (MOLT-4): 18.2 µM (inactive)
- GI50 (SF-295): 16.5 µM (inactive)
- GI50 (MDA-N): 17.7 µM (inactive)
- GI50 (SNB-75): 19.1 µM (inactive)
- GI50 (SK-MEL-5): 15.4 µM (inactive)
- GI50 (UO-31): 14.8 µM (inactive)
- GI50 (HL-60): 12.2 µM (inactive)
- GI50 (Hs-578T): 18.2 µM (inactive)
- GI50 (A498): 17.3 µM (inactive)
- GI50 (MDA-MB-231): 15.1 µM (inactive)
- GI50 (SW-620): 17.6 µM (inactive)
- GI50 (T47D): 14.8 µM (inactive)
- GI50 (SR): 11.6 µM (inactive)
- GI50 (IGROV-1): 16 µM (inactive)
- GI50 (MDA-MB-435): 17.2 µM (inactive)
- GI50 (TK-10): 18.7 µM (inactive)
- GI50 (NCI-H460): 14.7 µM (inactive)
- GI50 (PC-3): 14.1 µM (inactive)
- GI50 (Malme-3M): 14.3 µM (inactive)
- GI50 (HT-29): 10 µM (inactive)
- GI50 (HOP-62): 18.4 µM (inactive)
- GI50 (SK-OV-3): 18 µM (inactive)
- GI50 (DU-145): 18.2 µM (inactive)
- GI50 (ACHN): 17.3 µM (inactive)
- GI50 (CCRF-CEM): 15.2 µM (inactive)
- GI50 (LOX IMVI): 17.3 µM (inactive)
- GI50 (SN12C): 17.2 µM (inactive)
- GI50 (OVCAR-3): 15.9 µM (inactive)
- GI50 (OVCAR-8): 16.9 µM (inactive)
- GI50 (UACC-257): 13.3 µM (inactive)
- GI50 (SNB-19): 16.6 µM (inactive)
- GI50 (HCT-116): 13 µM (inactive)
- GI50 (MCF7): 16.9 µM (inactive)
- GI50 (NCI-H226): 16.4 µM (inactive)
- GI50 (HCC 2998): 14.3 µM (inactive)
- GI50 (SK-MEL-2): 15.7 µM (inactive)
- GI50 (EKVX): 15 µM (inactive)
- GI50 (SK-MEL-28): 17.9 µM (inactive)
- GI50 (HCT-15): 18.6 µM
- GI50 (BT-549): 20.8 µM (inactive)
- GI50 (CAKI-1): 15.6 µM (inactive)
- GI50 (SF-268): 17.5 µM (inactive)
- GI50 (U-251): 15.3 µM (inactive)
- GI50 (KM12): 16.5 µM (inactive)
- GI50 (K562): 19.8 µM (inactive)
- GI50 (A549): 16.6 µM (inactive)
- GI50 (786-0): 17.1 µM (inactive)
- GI50 (M14): 15.2 µM (inactive)
- GI50 (RXF 393): 16.6 µM (inactive)
